Experimental data published in US8106092B2, “Treatment of solid cancers” (priority 2004, dated 2012).

Legend:
[1] = test system: B16-OVA-specific CD8^+ T-cells; experiment: B16-OVA-specific CD8+ T-cell responses, ex vivo ELISPOT on d12; type: in vivo, C57BL/6 mice; settings: d12 splenocytes, responses to SVYDFFVWL, KVPRNQDWL and SIINFEKL
Procedure: FIGS. 13A to C are graphical representations showing synergistic effects between PEP005-mediated cure of primaries and DC therapy on the growth of secondary tumors and on CD8^+ T-cell induction. (A) On d−3 C57BL/6 mice where inoculated with 2×10^6 B16-OVA cells on the right flank (primary tumor) and 2×10^4 B16-OVA cells on the left flank (secondary tumor). On d0 and d1 the primary B16-OVA tumors, which has reach 30.4 mm^2+SD6 were cured with i.t. injections of 25 μg of PEP005 formulated in PEG400. On d4 and d11 mice received DC therapy using DC2.4 cells pulsed with SVYDFFVWL [SEQ ID NO:1], KVPRNQDWL [SEQ ID NO:4] and SIINFEKL [SEQ ID NO:2] peptides, and ovalbumin (n=12, PEP005+DC). […] Animal groups were established and treated as in (A) except that on d12 mice were sacrificed and splenocytes analyzed in an ex vivo ELISPOT assay for responses to SVYDFFVWL [SEQ ID NO:1], KVPRNQDWL [SEQ ID NO:4] and SIINFEKL [SEQ ID NO:2] […]
To determine whether the synergistic effect of PEP005 and DC therapies seen in […] correlated with anti-cancer CD8^+ T-cell induction, a group of animals were established and treated as described for FIG. 13A except the animals were killed on d12 and their splenocytes analyzed for B16-OVA-specific CD8^+ T-cells responses. […] In the absence of treatment no significant B16-OVA-specific CD8^+ T-cell responses were detected (FIG. 13C, Controls).

[2] = test system: B16 tumors; experiment: Example 3: topical PEP005 with DC+IL-2 and M720/B16, larger primary B16 tumors; type: in vivo, C57BL/6 mice; settings: topical dose printed 15 μg/ml, tumors 26-30 mm^2
Description: To determine whether PEP005 treatment could synergize with (i) vaccine-induced anti-cancer CD4 T-cells/antibodies and/or (ii) vaccine-induced anti-cancer CD8^+ T-cells, topical PEP005 treatment was combined with vaccination using (i) B16 lysate emulsified in Montanide ISA 720 adjuvant (M720/B16) and (ii) DC2.4 cells sensitized with TRP-2 peptide, SVYDFFVWL [SEQ ID NO:1] and activated with LPS (DC). The latter group also received IL-2 to maintain the vaccine induced T-cells. […] This experiment sought to determine whether improvements in B16 cure rate could be achieved when sub-optimal topical PEP005 treatment was combined with other immune-based therapies. This experiment differed from that described in Example 2 in that treatment was initiated when tumors were slightly larger and the M720/B16 vaccine was given d0 not d−5, and the dose of B16 cells in that vaccine was increased 10-fold.
B16 tumors were injected 2×10^6 s.c. into C57BL/6 mice on d−3 and on dO when the tumors had reached an average size of 26-30 mm^2, the groups of animal received the following treatments. […]
PEP005+DCAL-2: PEP005 (as above) plus DC2.4 cells which were (i) sensitized with TRP-2 peptide, SVYDFFVWL [SEQ ID NO:1] […]

C/C=C(/C)C(=O)O[C@H]1C(C)=C[C@]23C(=O)[C@@H](C=C(CO)[C@@H](O)[C@]12O)[C@H]1[C@@H](C[C@H]3C)C1(C)C [PEP005, ingenol-3-angelate]
B16-OVA-specific CD8+ T-cell responses [1]: about 120 spots/10^6 splenocytes
cure of B16 tumors by topical PEP005 alone [2]: did not cure most B16 tumors
